# Measurements from the NIST ThermoML archive (doi:10.1021/je500857w).
# ± gives the expanded uncertainty stated by the source.
# Test: xn = mol fraction of the nth substance listed
# Conditions: Gas, Vibrating wire viscometry, x1 = 0.949
structure (smiles),measurement,setting,value
C [methane] + CCC,viscosity,"199.92 K, 10367 kPa",0.03814 ± 0.0019 mPa·s
same,viscosity,"200.6 K, 13841 kPa",0.04236 ± 0.0016 mPa·s
same,viscosity,"202.32 K, 17279 kPa",0.04452 ± 0.0017 mPa·s
same,viscosity,"203.24 K, 24182 kPa",0.05008 ± 0.0018 mPa·s
same,viscosity,"203.36 K, 20735 kPa",0.04739 ± 0.0019 mPa·s
same,viscosity,"203.36 K, 27628 kPa",0.05294 ± 0.0018 mPa·s
same,viscosity,"203.43 K, 25922 kPa",0.0511 ± 0.0019 mPa·s
same,viscosity,"204.19 K, 31114 kPa",0.05549 ± 0.0018 mPa·s
same,viscosity,"255.51 K, 24135 kPa",0.03085 ± 0.00042 mPa·s
same,viscosity,"255.57 K, 31095 kPa",0.03577 ± 0.0006 mPa·s
same,viscosity,"255.59 K, 25902 kPa",0.03221 ± 0.00046 mPa·s
same,viscosity,"255.59 K, 27592 kPa",0.03348 ± 0.00048 mPa·s
same,viscosity,"255.62 K, 20701 kPa",0.02791 ± 0.00042 mPa·s
same,viscosity,"311.08 K, 25869 kPa",0.02348 ± 0.00038 mPa·s
same,viscosity,"311.11 K, 31037 kPa",0.0265 ± 0.0004 mPa·s
same,viscosity,"311.12 K, 20946 kPa",0.02061 ± 0.00062 mPa·s
same,viscosity,"311.13 K, 24419 kPa",0.02279 ± 0.00062 mPa·s
same,viscosity,"311.13 K, 27584 kPa",0.02453 ± 0.00046 mPa·s
same,viscosity,"366.88 K, 24192 kPa",0.01997 ± 0.00032 mPa·s
same,viscosity,"366.89 K, 25926 kPa",0.02064 ± 0.0003 mPa·s
same,viscosity,"366.89 K, 27645 kPa",0.02138 ± 0.00032 mPa·s
same,viscosity,"366.89 K, 31144 kPa",0.0226 ± 0.00054 mPa·s
same,viscosity,"423.62 K, 24191 kPa",0.01944 ± 0.00034 mPa·s
same,viscosity,"423.63 K, 25937 kPa",0.01988 ± 0.00028 mPa·s
same,viscosity,"423.63 K, 27640 kPa",0.02032 ± 0.00034 mPa·s
same,viscosity,"423.63 K, 31097 kPa",0.02136 ± 0.0003 mPa·s
